# Source: US10973245B2, “Immunomodulatory and growth promoting and controlling composition of intestinal microbiota undesirable bacteria and its use” (YESSINERGY HOLDING S/A, priority 2016, dated 2021)
# Marks after values point to notes of the source that are not given here.
# Tests used:
# Salmonella = Salmonella Control Efficiency Index by 'propé' drag swab tests, commercial broiler chickens; format: in vivo; conditions: Antibiotic=100
# Experimental: (§1) Formulations of examples 2 and 3 were administered to commercial broiler chickens, with an inclusion of 2 kg per ton of feed. The results are shown in Tables 12 (Diets with Zinc Bacitracin Antibiotic, As Growth Promoter Additives), 13 (Diets with the Composition of Example 2, as Growth Promoter Additives) and 14 (Diets with the Composition of Example 3, As Growth Promoter Additive) below.
# (§2) Note: (*)—Salmonella Control Efficiency Index, measured by conducting a ‘propé’ [shoe covers] drag swab tests. Antibiotic=100 (**)—Zinc Bacitracin
# [1] = Growth promoter additives in commercial broiler chicken diets (Examples 2 and 3 vs Zinc Bacitracin); format: in vivo, commercial broiler chickens
# Experimental: as §1, §2
# [2] = test system: sulfite-reducing Clostridium; assay: Sulfite-reducing Clostridium CFU count in cecum fecal material of challenged chickens (Examples 8, 9, 10); format: in vivo; conditions: cecum fecal material at 28 days; colony forming units
# Text: Compositions of examples 8, 9 and 10 were used as growth promoting additives for growing chicken feeds, i.e., during the first 28 days of life, to evaluate the control of Salmonella heidelbergii. On the fourth day of life, 20% of the birds were inoculated with Salmonella heidelbergii. At the end of the 28 days, fecal material was collected from the cecum of the birds and the counting of colony forming units (CFUs) of Salmonella and sulfite-reducing Clostridium.
# The treatments were as follows:
# T1: Basal Diet+SH Challenge—WITHOUT GPA (growth promoting antibiotic)
# T2: Basic Diet+SH+APC Challenge (Enramicima 8 ppm)
# T3: Basal Diet+SH Challenge+Sodium Butyrate (1.5 kg/t of feed)
# T4: Basal Diet+Composition of the Invention of Example 8—3 kg/t
# T5: Basal Diet+Composition of the Invention of Example 9—3 kg/t
# T6: Basal Diet+Composition of the Invention of Example 10—3 kg/t
# T7: Basal Diet+Composition of the Invention of Example 9—3 kg/t+Probiotic
# [3] = Fatty acids in cecum of piglets (Example 4); format: in vivo, PIC genetics
# Experimental: (§3) Composition of Example 4 was tested in piglets to evaluate their performance ratio in comparison with growth promoter antibiotic (GPA) and with sodium butyrate. All were added to the rations of the respective treatments as growth promoting additives.
# (§4) Sixty-three piglets were weaned at 22 days of age, with a start average body weight of 5.48 kg, both sexes, PIC genetics. The animals were separated by sex and distributed into 3 treatments, with 7 replicates of 3 animals each, during the whole period (22 to 64 days of age). Diet was formulated without Zinc Oxide or any other antimicrobial.
# (§5) T1: Basal Diet+GPA (colistin 8%—40 ppm)
# (§6) T2: Basal Diet+Sodium Butyrate 30% (1 kg/t)
# (§7) T3: Basal Diet+Composition of the Invention of Example 4 (2 kg/t)
# [4] = Piglet performance with growth promoting additives (Example 4); format: in vivo, PIC genetics; conditions: piglets 22 to 64 days of age
# Experimental: as §3, §4, §5, §6, §7
# [5] = Diarrhea index in piglets (Example 4); format: in vivo, PIC genetics
# Experimental: as §3, §4, §5, §6, §7
compound,measurement,setting,value
Zinc Bacitracin,Control of Salmonella (Salmonella Control Efficiency Index),Salmonella; Average of Productions 1-4,100
same,Control of Salmonella (Salmonella Control Efficiency Index),Salmonella; Production 1,100
same,Control of Salmonella (Salmonella Control Efficiency Index),Salmonella; Production 2,100
same,Control of Salmonella (Salmonella Control Efficiency Index),Salmonella; Production 3,100
same,Control of Salmonella (Salmonella Control Efficiency Index),Salmonella; Production 4,100
same,Feed Conversion,[1]; Average of Productions 1-4,1.69
same,Final Average Body Weight,[1]; Average of Productions 1-4,3.11 kgBW/bird
same,Food Intake,[1]; Average of Productions 1-4,5.159 kg/Bird
same,Feed Conversion,[1]; Production 1,1.72
same,Final Average Body Weight,[1]; Production 1,3.14 kgBW/bird
same,Food Intake,[1]; Production 1,5.329 kg/Bird
same,Feed Conversion,[1]; Production 2,1.71
same,Final Average Body Weight,[1]; Production 2,3.07 kgBW/bird
same,Food Intake,[1]; Production 2,5.167 kg/Bird
same,Feed Conversion,[1]; Production 3,1.60
same,Final Average Body Weight,[1]; Production 3,3.20 kgBW/bird
same,Food Intake,[1]; Production 3,5.034 kg/Bird
same,Feed Conversion,[1]; Production 4,1.72
same,Final Average Body Weight,[1]; Production 4,3.01 kgBW/bird
same,Food Intake,[1]; Production 4,5.105 kg/Bird
CCCC(=O)[O-].[Na+] [Sodium Butyrate],Sulfite-reducing Clostridium,[2],4959
same,Fatty acids in Cecum: Acetic,[3],0.38
same,Fatty acids in Cecum: Butyric,[3],0.18
same,Fatty acids in Cecum: Propionic,[3],0.32^a
same,Fatty acids in Cecum: Total,[3],0.87
same,CA = feed conversion,[4],2.07
same,Diarrhea index,[5]; Grade I,22^b
same,Diarrhea index,[5]; Grade II,33^ab
same,Diarrhea index,[5]; Grade III,53^b
